Assay results taken from patent US12479825B2, “Melanocortin subtype-2 receptor (MC2R) antagonists and uses thereof” (Crinetics Pharmaceuticals, Inc., priority 2019, dated 2025).

Biological target: T1, hMC2 receptor (Homo sapiens, UniProt Q01718)
T1 construct: host or cells: CRE-bla-CHO-K1 cells, crude membrane fraction
Experiment: hMC2 membrane binding assay ([125I]ACTH (1-39) Tyr23, SPA)
Conditions: crude hMC2R membranes from CRE-bla-CHO-K1 cells expressing hMC2 receptor and hMRAP; 0.2 nM [125I]ACTH (1-39) Tyr23; 1.5 hours at room temperature; read-out: MC2R binding potency
Procedure: Crude membrane fractions are prepared from CRE-bla-CHO-K1 cells stably expressing hMC2 receptor and hMRAP accessory protein (Thermo Fisher). The cells are grown to 85-100% confluence on standard tissue culture dishes in GlutaMax DMEM growth media (Gibco) with following additives: 10% dialyzed FBS (Gemini), 0.1 mM NEAA (Gibco), 25 mM HEPES (Gibco), 5 μg/mL blasticidin (Goldbio), 100 μg/mL zeocin (Invitrogen), 600 μg/mL hygromycin (Goldbio). To prepare membranes, cells are scraped and collected in 1× Dulbecco's phosphate buffered saline (Corning) and then pelleted at 1000 RPM's. The cell pellet is reconstituted in membrane preparation buffer (20 mM HEPES, 6 mM MgCl2 and 1 mM EGTA, protease inhibitor tablets (Pierce) adjusted to pH 7.4), homogenized using a dounce homogenizer, and the resulting membrane fraction is pelleted by centrifugation at 12,000 RPM's. The membrane pellet is resuspended in membrane preparation buffer, snap freezed and stored at −80° C. for later use.
The hMC2 membrane binding assay utilizes the following components: radiolabel [^125I]ACTH (1-39) Tyr23 (PerkinElmer), wheat germ agglutinin coated PVT SPA beads (PerkinElmer), crude hMC2R membranes, and compounds. Briefly hMC2R membranes are incubated with SPA beads in binding assay buffer (50 mM HEPES, 5 mM MgCl2, 1 mM CaCl2, 0.2% BSA, protease inhibitor tablets (Pierce) adjusted to pH7.4) prior to assay initiation. A dose response of compound (the final concentration of compound is typically 0-10,000 nM), SPA membranes, and [^125I]ACTH (1-39) Tyr23 at a final concentration of 0.2 nM is plated in a 96-well assay plate and allowed to incubate 1.5 hours at room temperature. Assay plates are read using a Top Count NXT and Ki values for compounds are determined using a GraphPad Prism 6 non-linear regression analysis.

T1 sequence (Q01718 whole entry): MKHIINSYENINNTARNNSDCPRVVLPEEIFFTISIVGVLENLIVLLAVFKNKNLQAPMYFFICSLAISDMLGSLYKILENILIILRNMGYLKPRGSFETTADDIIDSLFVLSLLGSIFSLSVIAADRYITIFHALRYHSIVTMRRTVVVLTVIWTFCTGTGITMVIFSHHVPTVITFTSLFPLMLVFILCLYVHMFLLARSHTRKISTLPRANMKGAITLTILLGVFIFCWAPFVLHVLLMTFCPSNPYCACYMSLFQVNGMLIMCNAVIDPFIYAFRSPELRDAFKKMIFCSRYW
T1 sequence (Q8TCY5 whole entry partner): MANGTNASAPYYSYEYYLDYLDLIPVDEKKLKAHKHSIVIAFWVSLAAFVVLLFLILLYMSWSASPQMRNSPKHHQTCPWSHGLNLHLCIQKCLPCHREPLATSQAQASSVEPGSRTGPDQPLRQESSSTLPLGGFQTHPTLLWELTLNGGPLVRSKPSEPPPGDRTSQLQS

Ki	Compound
10 to 100 nM	CCOc1ncccc1-c1ccc(N2CC[C@@H](Oc3ccc(Cl)cc3C(F)(F)F)C[C@H]2CC)c(O[C@@H]2CCN(C)C2)n1 (mixture of isomers) [3-9, 5-[rac-(2R,4R)-4-[4-chloro-2-(trifluoromethyl)phenoxy]-2-ethylpiperidin-1-yl]-2′-ethoxy-6-{[(3R)-1-methylpyrrolidin-3-yl]oxy}-2,3′-bipyridine]
< 10 nM	CCOc1ccccc1-c1ccc(N2CC[C@H](Oc3ccc(Cl)cc3C#N)C[C@@H]2C)c(C(=O)N[C@@H]2CCN(C)C2)n1 (mixture of isomers) [2-24, 3-[cis-4-(4-chloro-2-cyanophenoxy)-2-methylpiperidin-1-yl]-6-(2-ethoxyphenyl)-N-[(3R)-1-methylpyrrolidin-3-yl]pyridine-2-carboxamide]
< 10 nM	CCOc1ncccc1-c1ccc(N2CCN(C(=O)c3ccc(F)cc3C(F)(F)F)C[C@H]2CC)c(OCCNC)n1 [1-27, [2-({2′-ethoxy-5-[(2R)-2-ethyl-4-[4-fluoro-2-(trifluoromethyl)benzoyl]piperazin-1-yl]-[2,3′-bipyridin]-6-yl}oxy)ethyl](methyl)amine]
< 10 nM	CCOc1ncccc1-c1ccc(N2CC[C@H](Oc3ccc(C(F)(F)F)nc3C#N)C[C@@H]2CC)c(C(=O)N[C@@H]2CCN(C)C2)n1 (mixture of isomers) [2-15, 5-(cis-4-{[2-cyano-6-(trifluoromethyl)pyridin-3-yl]oxy}-2-ethylpiperidin-1-yl)-2′-ethoxy-N-[(3R)-1-methylpyrrolidin-3-yl]-[2,3′-bipyridine]-6-carboxamide]
< 10 nM	CCOc1ccc(C(=O)N2CCN(c3ccc(-c4cccnc4OCC)nc3OC[C@@H](C)N)[C@H](CC)C2)c(C(F)(F)F)n1 [1-19, (2R)-1-({2′-ethoxy-5-[(2R)-4-[6-ethoxy-2-(trifluoromethyl)pyridine-3-carbonyl]-2-ethylpiperazin-1-yl]-[2,3′-bipyridin]-6-yl}oxy)propan-2-amine]
< 10 nM	CCOc1ncccc1-c1ccc(N2CC[C@H](Oc3ccc(C(F)(F)F)cc3C#N)C[C@H]2C2CC2)c(C(=O)N[C@@H]2CCN(C)C2)n1 (racemic) [2-4, 5-[trans*4-[2-cyano-4-(trifluoromethyl)phenoxy]-2-cyclopropylpiperidin-1-yl]-2′-ethoxy-N-[(3R)-1-methylpyrrolidin-3-yl]-[2,3′-bipyridine]-6-carboxamide]
< 10 nM	CCOc1ccc(C(=O)N2CCN(c3ccc(-c4cccnc4OCC)nc3OCCNC)[C@H](CC)C2)c(C(F)(F)F)n1 [1-9, [2-({2′-ethoxy-5-[(2R)-4-[6-ethoxy-2-(trifluoromethyl)pyridine-3-carbonyl]-2-ethylpiperazin-1-yl]-[2,3′-bipyridin]-6-yl}oxy)ethyl](methyl)amine]
< 10 nM	CCOc1ncccc1-c1ccc(N2CCN(C(=O)N3CCC[C@H]3C(F)(F)F)C[C@H]2CC)c(OCCNC)n1 [1-11, [2-({2′-ethoxy-5-[(2R)-2-ethyl-4-[(2S)-2-(trifluoromethyl)pyrrolidine-1-carbonyl]piperazin-1-yl]-[2,3′-bipyridin]-6-yl}oxy)ethyl](methyl)amine]
< 10 nM	CCOc1ccc(C(=O)N2CCN(c3ccc(-c4cccnc4OCC)nc3O[C@H]3CCNC3)[C@H](CC)C2)c(C(F)(F)F)n1 [1-18, 2′-ethoxy-5-[(2R)-4-[6-ethoxy-2-(trifluoromethyl)pyridine-3-carbonyl]-2-ethylpiperazin-1-yl]-6-[(3S)-pyrrolidin-3-yloxy]-2,3′-bipyridine]
< 10 nM	CCOc1ncccc1-c1ccc(N2CCN(C(=O)c3ccc(Cl)cc3Cl)C[C@H]2CC)c(OCCNC)n1 [1-28, [2-({5-[(2R)-4-(2,4-dichlorobenzoyl)-2-ethylpiperazin-1-yl]-2′-ethoxy-[2,3′-bipyridin]-6-yl}oxy)ethyl](methyl)amine]
< 10 nM	CCOc1ncccc1-c1ccc(N2CC[C@@H](Oc3ccc(C(F)(F)F)nc3C#N)C[C@H]2CC)c(C(=O)N[C@H]2CCN(C)C2)n1 (single isomer, unassigned) [2-22]
100 to 1000 nM	CCOc1ncccc1-c1ccc(N2CC[C@H](S(=O)(=O)c3ccccc3C(F)(F)F)C[C@H]2CC)c(C(=O)N[C@@H]2CCN(C)C2)n1 (racemic) [5-2, rac-2′-ethoxy-5-[(2R,4S)-2-ethyl-4-[2-(trifluoromethyl)benzenesulfonyl]piperidin-1-yl]-N-[(3R)-1-methylpyrrolidin-3-yl]-[2,3′-bipyridine]-6-carboxamide]
< 10 nM	CCOc1ccc(C(=O)N2CCN(c3ccc(-c4cccnc4OCC)nc3OCCN(C)C)[C@H](CC)C2)c(C(F)(F)F)n1 [1-17, [2-({2′-ethoxy-5-[(2R)-4-[6-ethoxy-2-(trifluoromethyl)pyridine-3-carbonyl]-2-ethylpiperazin-1-yl]-[2,3′-bipyridin]-6-yl}oxy)ethyl]dimethylamine]
< 10 nM	CCOc1ncccc1-c1ccc(N2CCN(C(=O)N3CCc4cccc(C#N)c43)C[C@H]2CC)c(OCCNC)n1 [1-23, 1-[(3R)-4-{2′-ethoxy-6-[2-(methylamino)ethoxy]-[2,3′-bipyridin]-5-yl}-3-ethylpiperazine-1-carbonyl]-2,3-dihydro-1H-indole-7-carbonitrile]
< 10 nM	CCOc1ncccc1-c1ccc(N2CCN(C(=O)N3CCc4cc(Cl)cc(C#N)c43)C[C@H]2CC)c(OCCN)n1 [1-25, 1-[(3R)-4-[6-(2-aminoethoxy)-2′-ethoxy-[2,3′-bipyridin]-5-yl]-3-ethylpiperazine-1-carbonyl]-5-chloro-2,3-dihydro-1H-indole-7-carbonitrile]
< 10 nM	CCOc1ncccc1-c1ccc(N2CC[C@H](Oc3ccc(C(F)(F)F)cc3C#N)C[C@@H]2C2CC2)c(C(=O)N[C@@H]2CCN(C)C2)n1 (mixture of isomers) [2-6, 5-{cis-4-[2-cyano-4-(trifluoromethyl)phenoxy]-2-cyclopropylpiperidin-1-yl}-2′-ethoxy-N-[(3R)-1-methylpyrrolidin-3-yl]-[2,3′-bipyridine]-6-carboxamide]
< 10 nM	CCOc1ncccc1-c1ccc(N2CCN(C(=O)c3ccc(Cl)cc3C(F)(F)F)C[C@H]2CC)c(OCCNC)n1 [1-15, [2-({5-[(2R)-4-[4-chloro-2-(trifluoromethyl)benzoyl]-2-ethylpiperazin-1-yl]-2′-ethoxy-[2,3′-bipyridin]-6-yl}oxy)ethyl](methyl)amine]
< 10 nM	CCOc1ncccc1-c1ccc(N2CCN(C(=O)c3ccc(Cl)cc3C(F)(F)F)C[C@H]2CC)c(O[C@@H]2CCNC2)n1 [1-7, 5-[(2R)-4-[4-chloro-2-(trifluoromethyl)benzoyl]-2-ethylpiperazin-1-yl]-2′-ethoxy-6-[(3R)-pyrrolidin-3-yloxy]-2,3′-bipyridine]
< 10 nM	CCOc1ncccc1-c1ccc(N2CCN(C(=O)c3ccc(F)cc3C(F)F)C[C@H]2CC)c(O[C@@H]2CCNC2)n1 [1-6, 5-[(2R)-4-[2-(difluoromethyl)-4-fluorobenzoyl]-2-ethylpiperazin-1-yl]-2′-ethoxy-6-[(3R)-pyrrolidin-3-yloxy]-2,3′-bipyridine]
< 10 nM	CCOc1ncccc1-c1ccc(N2CC[C@@H](Oc3ccc(C(F)(F)F)nc3C#N)C[C@H]2CC)c(C(=O)N[C@@H]2CCN(C)C2)n1 (single isomer, unassigned) [2-18]
10 to 100 nM	CCOc1ncccc1-c1ccc(N2CCN(C(=O)c3ccc(F)cc3Cl)C[C@H]2CC)c(-c2nnc(CN)[nH]2)n1 [4-2, 1-(5-{5-[(2R)-4-(2-chloro-4-fluorobenzoyl)-2-ethylpiperazin-1-yl]-2′-ethoxy-[2,3′-bipyridin]-6-yl}-4H-1,2,4-triazol-3-yl)methanamine]
< 10 nM	CCOc1ncccc1-c1ccc(C2CCN(c3ccc(C(F)(F)F)cc3C#N)CC2)c(OCCNC)n1 [3-1, 2-(4-(2′-ethoxy-6-(2-(methylamino)ethoxy)-[2,3′-bipyridin]-5-yl)piperidin-1-yl)-5-(trifluoromethyl)benzonitrile]
< 10 nM	CCOc1ncccc1-c1ccc(N2CCN(C(=O)c3ccc(OC)nc3C(F)(F)F)C[C@H]2CC)c(OCCNC)n1 [1-30, [2-({2′-ethoxy-5-[(2R)-2-ethyl-4-[6-methoxy-2-(trifluoromethyl)pyridine-3-carbonyl]piperazin-1-yl]-[2,3′-bipyridin]-6-yl}oxy)ethyl](methyl)amine]

Compound	Ki
5-{cis-4-[4-chloro-2-(difluoromethyl)phenoxy]-2-cyclopropylpiperidin-1-yl}-2′-ethoxy-N-[(3R)-1-methylpyrrolidin-3-yl]-[2,3′-bipyridine]-6-carboxamide [2-7]	< 10 nM
CCOc1ncccc1-c1ccc(N2CC[C@@H](Oc3ccc(C(F)(F)F)cc3C#N)C[C@H]2CC)c(C(=O)N[C@@H]2CN3CCC2CC3)n1 (racemic) [2-20, N-[(3S)-1-azabicyclo[2.2.2]octan-3-yl]-5-[cis*-4-[2-cyano-4-(trifluoromethyl)phenoxy]-2-ethylpiperidin-1-yl]-2′-ethoxy-[2,3′-bipyridine]-6-carboxamide]	< 10 nM
